# In patent EP4635500A1, “THERAPEUTIC AGENT FOR BACTERIAL INFECTION” (Sumitomo Pharma Co., Ltd., priority 2022, dated 2024):
# Like-named read-outs stand apart in the source and are kept apart here.
# Assays:
# [1] = system: Bacteroides spp.; assay: MIC, agar dilution, anaerobic bacteria (Example 9, Tables 17, 22); assay type: cell-based; conditions: for MIC: (n)=Compound A µg/mL, 0=Compound A alone antibacterial
# [2] = system: carbapenemase-producing Enterobacteriaceae (CPE); assay: Bactericidal activity by bactericidal curve method (Example 10); assay type: cell-based, E. coli, Klebsiella pneumoniae; conditions: MEPM ≥1 x MIC; within 1 to 2 hours after culture; all four strains
# [3] = system: A. baumannii; assay: MIC, broth microdilution, 6 strains (Example 6, Table 7); assay type: cell-based; conditions: Acinetobacter baumannii, Carbapenem-resistant, read-out: MIC
# [4] = system: P. aeruginosa; assay: Systemic infection lethal mouse model, ED50 (Example 15, Table 33); conditions: for Survival rate: 7 days after infection; for ED50: Pseudomonas aeruginosa, in Mus musculus, sc, 2 h, single subcutaneous dose 2 hours after infection, with cilastatin at 100 mg/kg
# Protocol: The test strains on the agar medium were suspended in saline and adjusted to a Klett unit of about 200 using a Klett Photoelectric Colorimeter. […] Male ICR mice were inoculated intraperitoneally with 0.2 mL of the bacterial suspension. Two hours after the inoculation, saline or a solution for administering the agent of each concentration was administered subcutaneously to the mice in a single dose. The number of mice that survived from Day 1 to Day 7 after infection was recorded.
structure (smiles),measurement,setting,value
"C[C@@H](O)[C@H]1C(=O)N2C(C(=O)O)=C(S[C@@H]3CN[C@H](C(=O)N(C)C)C3)[C@H](C)[C@H]12 [MEPM, meropenem]",MIC50,[1]; Bacteroides spp.,0.5 µg/mL
same,MIC90,[1]; Bacteroides spp.,4 µg/mL
same,MIC,"[1]; Bacteroides, KUB No. 2982 Bacteroidesfragilis",0.12 µg/mL
same,MIC,"[1]; Bacteroides, KUB No. 6464 Bacteroides vulgarus",0.12 µg/mL
same,MIC,"[1]; Bacteroides, KUB No. 6480 Bacteroides thetaioraomicron",1 µg/mL
same,MIC,"[1]; Bacteroides, KUB No. 6487 Bacteroides thetaiotamicron",2 µg/mL
same,MIC50,"[1]; Bacteroides, n=56, combination: Compound A at 4 ug/mL, read-out: MIC50",0.5 µg/mL
same,MIC90,"[1]; Bacteroides, n=56, combination: Compound A at 4 ug/mL, read-out: MIC90",4 µg/mL
same,MIC,[1]; KUB No. 2977 Bacteroides thetaiotaomicron ATCC 29741,0.25 µg/mL
same,MIC,[1]; KUB No. 2983 Bacteroides fragilis,4 µg/mL
same,MIC,[1]; KUB No. 2984 Bacteroides thetaiotaomicron,0.25 µg/mL
same,MIC,[1]; KUB No. 3003 Bacteroides fragilis ATCC 25285,0.12 µg/mL
same,MIC,[1]; KUB No. 3009 Bacteroides ovatus,1 µg/mL
same,MIC,[1]; KUB No. 6458 Bacteroides fragilis,0.5 µg/mL
same,MIC,[1]; KUB No. 6459 Bacteroides stercoris,0.25 µg/mL
same,MIC,[1]; KUB No. 6460 Bacteroides thetaiotaomicron,2 µg/mL
same,MIC,[1]; KUB No. 6461 Bacteroides fragilis,0.5 µg/mL
same,MIC,[1]; KUB No. 6463 Bacteroides fragilis,0.12 µg/mL
same,MIC,[1]; KUB No. 6465 Bacteroides thetaiotaomicron,0.5 µg/mL
same,MIC,[1]; KUB No. 6466 Bacteroides fragilis,4 µg/mL
same,MIC,[1]; KUB No. 6467 Bacteroides fragilis,0.12 µg/mL
same,MIC,[1]; KUB No. 6468 Bacteroides fragilis,4 µg/mL
same,MIC,[1]; KUB No. 6469 Bacteroides fragilis,0.25 µg/mL
same,MIC,[1]; KUB No. 6470 Bacteroides fragilis,0.25 µg/mL
same,MIC,[1]; KUB No. 6471 Bacteroides fragilis,0.12 µg/mL
same,MIC,[1]; KUB No. 6472 Bacteroides stercoris,1 µg/mL
same,MIC,[1]; KUB No. 6473 Bacteroides fragilis,0.25 µg/mL
same,MIC,[1]; KUB No. 6474 Bacteroides fragilis,1 µg/mL
same,MIC,[1]; KUB No. 6475 Bacteroides thetaiotaomicron,2 µg/mL
same,MIC,[1]; KUB No. 6476 Bacteroides vulgatus,0.5 µg/mL
same,MIC,[1]; KUB No. 6477 Bacteroides fragilis,4 µg/mL
same,MIC,[1]; KUB No. 6478 Bacteroides fragilis,0.12 µg/mL
same,MIC,[1]; KUB No. 6481 Bacteroides fragilis,0.12 µg/mL
same,MIC,[1]; KUB No. 6483 Bacteroides fragilis,0.12 µg/mL
same,MIC,[1]; KUB No. 6484 Bacteroides fragilis,0.25 µg/mL
same,MIC,[1]; KUB No. 6485 Bacteroides vulgatus,8 µg/mL
same,MIC,[1]; KUB No. 6486 Bacteroides fragilis,0.12 µg/mL
same,MIC,[1]; KUB No. 6490 Bacteroides fragilis,64 µg/mL
same,MIC,[1]; KUB No. 6491 Bacteroides fragilis,16 µg/mL
same,MIC,[1]; KUB No. 6493 Bacteroides thetaiotaomicron,0.25 µg/mL
same,MIC,[1]; KUB No. 6496 Bacteroides fragilis,0.12 µg/mL
same,MIC,[1]; KUB No. 6497 Bacteroides vulgatus,0.12 µg/mL
same,MIC,[1]; KUB No. 6502 Bacteroides fragilis,16 µg/mL
same,MIC,[1]; KUB No. 6503 Bacteroides thetaiotaomicron,0.5 µg/mL
same,MIC,[1]; KUB No. 6504 Bacteroides caccae,0.25 µg/mL
same,MIC,[1]; KUB No. 6506 Bacteroides thetaiotaomicron,4 µg/mL
same,MIC,[1]; KUB No. 6509 Bacteroides fragilis,> 512 µg/mL
same,MIC,[1]; KUB No. 6511 Bacteroides salyersiae,1 µg/mL
same,MIC,[1]; KUB No. 6513 Bacteroides fragilis,0.25 µg/mL
same,MIC,[1]; KUB No. 6515 Bacteroides thetaiotaomicron,2 µg/mL
same,MIC,[1]; KUB No. 6518 Bacteroides fragilis,0.06 µg/mL
same,MIC,[1]; KUB No. 6522 Bacteroides fragilis,0.25 µg/mL
same,MIC,[1]; KUB No. 6523 Bacteroides fragilis,4 µg/mL
same,MIC,[1]; KUB No. 6525 Bacteroides fragilis,4 µg/mL
same,MIC,[1]; KUB No. 6527 Bacteroides thetaiotaomicron,4 µg/mL
same,MIC,[1]; KUB No. 6530 Bacteroides thetaiotaomicron,2 µg/mL
same,MIC,[1]; KUB No. 6535 Bacteroides fragilis,0.12 µg/mL
same,MIC,[1]; KUB No. 6544 Bacteroides vulgatus,1 µg/mL
same,MIC,[1]; KUB No. 6545 Bacteroides thetaiotaomicron,2 µg/mL
same,MIC,[1]; KUB No. 6556 Bacteroides vulgatus,1 µg/mL
same,reduction in the number of bacteria compared to preculture level,[2],3 log10
same,MIC,"[3]; A. baumannii strain with AMR gene ADC-25, OXA-23, OXA-66, TEM-ID",64 µg/mL
same,MIC,"[3]; A. baumannii strain with AMR gene ADC-25, XA-23, OXA-66, strA, strB, sul2, TEM-1D",64 µg/mL
same,MIC,"[3]; A. baumannii strain with AMR gene OXA-23, OXA-69, TEM-1D",16 µg/mL
same,Survival rate,"[4]; CDC-90 (Serine), Dose 10 mg/kg",0%
same,Survival rate,"[4]; CDC-90 (Serine), Dose 30 mg/kg",10%
same,Survival rate,"[4]; CDC-90 (Serine), Dose 100 mg/kg",90%
same,Survival rate,"[4]; CDC-90 (Serine), Dose 300 mg/kg",100%
same,Survival rate,"[4]; CDC-110 (Metallo), Dose 100 mg/kg",0%
same,Survival rate,"[4]; CDC-110 (Metallo), Dose 150 mg/kg",30%
same,Survival rate,"[4]; CDC-110 (Metallo), Dose 200 mg/kg",60%
same,Survival rate,"[4]; CDC-110 (Metallo), Dose 300 mg/kg",60%
same,ED50,"[4]; read-out: ED50 of MEPM (95% confidence intervals), CDC-90 (Serine)",54.8 mg/kg
same,ED50,"[4]; read-out: ED50 of MEPM (95% confidence intervals), CDC-110 (Metallo)",218 mg/kg
